Tested on: HCV genotype 1b replicon
Test: HCV replicon assay (1b_Huh-Luc/Neo-ET cell line, luciferase readout)
Assay type: cell-based
Settings: Hepatitis C virus, Huh-7, 72 h, read-out: Inhibition of HCV genotype 1b
Description: Biological activity of the compounds of the invention was determined using an HCV replicon assay. The 1b_Huh-Luc/Neo-ET cell line persistently expressing a bicistronic genotype 1b replicon in Huh 7 cells was obtained from ReBLikon GMBH. This cell line was used to test compound inhibition using luciferase enzyme activity readout as a measurement of compound inhibition of replicon levels.
On Day 1 (the day after plating), each compound is added in triplicate to the cells. Plates incubated for 72 h prior to running the luciferase assay. Enzyme activity was measured using a Bright-Glo Kit (cat. number E2620) manufactured by Promega Corporation. The following equation was used to generate a percent control value for each compound. % Control=(Average Compound Value/Average Control)*100
The EC50 value was determined using GraphPad Prism and the following equation: Y=Bottom+(Top−Bottom)/1+10^((Log IC50−X)*HillSlope))
EC50 values of compounds are repeated several times in the replicon assay.

COC(=O)N[C@H](C(=O)N1CCC[C@H]1c1ncc(-c2ccc(-c3ccc4cc(-c5c[nH]c([C@@H]6CCCN6C(=O)[C@@H](NC(=O)OC)[C@@H](C)OC)n5)ccc4n3)cc2)[nH]1)C(C)C [compound 40]
EC50: < 1 nM

COC(=O)N[C@@H](C)C(=O)N1CCC[C@H]1c1nc(-c2ccc3nc(-c4ccc(-c5cnc([C@@H]6CCCN6C(=O)[C@@H](NC(=O)OC)C(C)C)[nH]5)cc4)ccc3c2)c[nH]1 [compound 41]
EC50: < 1 nM

COC(=O)N[C@H](C(=O)N1CCC[C@H]1c1nc(-c2ccc3nc(-c4ccc(-c5cnc([C@@H]6CCCN6C(=O)[C@@H](NC(=O)OC)C6CCOCC6)[nH]5)cc4)ccc3c2)c[nH]1)C(C)C [compound 42]
EC50: < 1 nM

COC(=O)N[C@H](C(=O)N1CCC[C@H]1c1nc(-c2ccc3nc(-c4ccc(-c5cnc([C@@H]6CCCN6C(=O)[C@@H](NC(=O)OC)[C@@H](C)OC)[nH]5)cc4)ccc3c2)c[nH]1)C(C)C [compound 43]
EC50: < 1 nM

COC(=O)N[C@@H](C)C(=O)N1CCC[C@H]1c1ncc(-c2ccc(-c3ccc4cc(-c5c[nH]c([C@@H]6CCCN6C(=O)[C@@H](NC(=O)OC)C(C)C)n5)ccc4n3)cc2)[nH]1 [compound 44]
EC50: < 1 nM

COC(=O)N[C@H](C(=O)N1CCC[C@H]1c1ncc(-c2ccc(-c3ccc4cc(-c5c[nH]c([C@@H]6CCCN6C(=O)[C@H](NC(=O)OC)c6ccccc6)n5)cnc4c3)cc2)[nH]1)C(C)C [compound 45]
EC50: < 1 nM

COC(=O)N[C@H](C(=O)N1CCC[C@H]1c1nc(-c2ccc3cc(-c4ccc(-c5cnc([C@@H]6CCCN6C(=O)[C@@H](NC(=O)OC)C6CCOCC6)[nH]5)cc4)ccc3c2)c[nH]1)C(C)C [compound 46]
EC50: < 1 nM

COC(=O)N[C@H](C(=O)N1CCC[C@H]1c1ncc(-c2ccc(-c3ccc4cc(-c5c[nH]c([C@@H]6CCCN6C(=O)[C@@H](NC(=O)OC)C6CCOCC6)n5)ccc4c3)cc2)[nH]1)C(C)C [compound 47]
EC50: < 1 nM

COC(=O)N[C@H](C(=O)N1CCC[C@H]1c1ncc(-c2ccc(-c3ccc4cc(-c5c[nH]c([C@@H]6CCCN6C(=O)[C@H](NC(=O)OC)c6ccccc6)n5)ccc4c3)nc2)[nH]1)C(C)C [compound 48]
EC50: < 1 nM

COC(=O)N[C@H](C(=O)N1CCC[C@H]1c1nc(-c2cnc3cc(-c4ccc(-c5cnc([C@@H]6CCCN6C(=O)[C@@H](NC(=O)OC)C6CCOCC6)[nH]5)cc4)ccc3c2)c[nH]1)C(C)C [compound 49]
EC50: < 1 nM

COC(=O)N[C@H](C(=O)N1CCC[C@H]1c1ncc(-c2ccc(-c3ccc4cc(-c5c[nH]c([C@@H]6CCCN6C(=O)[C@@H](NC(=O)OC)C6CCOCC6)n5)cnc4c3)cc2)[nH]1)C(C)C [compound 50]
EC50: < 1 nM

COC(=O)N[C@H](C(=O)N1CCC[C@H]1c1nc(-c2ccc3cc(-c4ccc(-c5cnc([C@@H]6CCCN6C(=O)[C@@H](NC(=O)OC)C6CCOCC6)[nH]5)cn4)ccc3c2)c[nH]1)C(C)C [compound 51]
EC50: < 1 nM

COC(=O)N[C@H](C(=O)N1CCC[C@H]1c1ncc(-c2ccc(-c3ccc4cc(-c5c[nH]c([C@@H]6CCCN6C(=O)[C@@H](NC(=O)OC)C6CCOCC6)n5)ccc4c3)nc2)[nH]1)C(C)C [compound 52]
EC50: < 1 nM

COC(=O)N[C@H](C(=O)N1CCC[C@H]1c1nc(-c2ccc3nc(-c4ccc(-c5cnc([C@@H]6CCCN6C(=O)[C@@H](NC(=O)OC)C(C)C)[nH]5)nc4)ccc3c2)c[nH]1)C(C)C [compound 53]
EC50: < 1 nM

COC(=O)N[C@@H](C(=O)N1CCC[C@H]1c1nc(-c2ccc3nc(-c4ccc(-c5cnc([C@@H]6CCCN6C(=O)[C@H](NC(=O)OC)c6ccccc6)[nH]5)nc4)ccc3c2)c[nH]1)c1ccccc1 [compound 54]
EC50: < 1 nM

COC(=O)N[C@H](C(=O)N1CCC[C@H]1c1nc(-c2ccc3cc(-c4ccc(-c5cnc([C@@H]6CCCN6C(=O)[C@H](NC(=O)OC)c6ccccc6)[nH]5)cn4)ccc3c2)c[nH]1)C(C)C [compound 56]
EC50: < 1 nM

COC(=O)N[C@H](C(=O)N1CCC[C@H]1c1nc(-c2cnc3cc(-c4ccc(-c5cnc([C@@H]6CCCN6C(=O)[C@@H](NC(=O)OC)C(C)C)[nH]5)cc4F)ccc3c2)c[nH]1)C(C)C [compound 57]
EC50: < 1 nM

COC(=O)N[C@H](C(=O)N1CCC[C@H]1c1ncc(-c2ccc(-c3ccc4cc(-c5c[nH]c([C@@H]6CCCN6C(=O)[C@H](NC(=O)OC)c6ccccc6)n5)cnc4c3)c(F)c2)[nH]1)C(C)C [compound 58]
EC50: < 1 nM

COC(=O)N[C@H](C(=O)N1CCC[C@H]1c1ncc(-c2ccc(-c3ccc4cc(-c5c[nH]c([C@@H]6CCCN6C(=O)[C@@H](NC(=O)OC)C6CCOCC6)n5)cnc4c3)c(F)c2)[nH]1)C(C)C [compound 59]
EC50: < 1 nM

COC(=O)N[C@H](C(=O)N1CCC[C@H]1c1ncc(-c2ccc(-c3ccc4cc(-c5c[nH]c([C@@H]6CCCN6C(=O)[C@H](NC(=O)OC)c6ccccc6)n5)cnc4c3)nc2)[nH]1)C(C)C [compound 60]
EC50: < 1 nM

COC(=O)N[C@H](C(=O)N1CCC[C@H]1c1ncc(-c2ccc(-c3ccc4cc(-c5c[nH]c([C@@H]6CCCN6C(=O)[C@@H](NC(=O)OC)C6CCOCC6)n5)cnc4c3)nc2)[nH]1)C(C)C [compound 61]
EC50: < 1 nM

COC(=O)N[C@H](C(=O)N1CCC[C@H]1c1nc(-c2cnc3cc(-c4ccc(-c5cnc([C@@H]6CCCN6C(=O)[C@@H](NC(=O)OC)C6CCOCC6)[nH]5)cn4)ccc3c2)c[nH]1)C(C)C [compound 62]
EC50: < 1 nM

COC(=O)N[C@H](C(=O)N1CCC[C@H]1c1nc(-c2ccc3cc(-c4ccc(-c5cnc([C@@H]6CCCN6C(=O)[C@H](NC(=O)OC)c6ccccc6)[nH]5)nc4)ccc3c2)c[nH]1)C(C)C [compound 63]
EC50: < 1 nM

COC(=O)N[C@H](C(=O)N1CCC[C@H]1c1nc(-c2ccc3cc(-c4ccc(-c5cnc([C@@H]6CCCN6C(=O)[C@H](NC(=O)OC)c6ccccc6)[nH]5)cc4F)ccc3c2)c[nH]1)C(C)C [compound 64]
EC50: < 1 nM

COC(=O)N[C@H](C(=O)N1CCC[C@H]1c1nc(-c2ccc3cc(-c4ccc(-c5cnc([C@@H]6CCCN6C(=O)[C@@H](NC(=O)OC)C6CCOCC6)[nH]5)cc4F)ccc3c2)c[nH]1)C(C)C [compound 65]
EC50: < 1 nM

COC(=O)N[C@H](C(=O)N1CCC[C@H]1c1nc(-c2ccc3cc(-c4ccc(-c5cnc([C@@H]6CCCN6C(=O)[C@@H](NC(=O)OC)C(C)C)[nH]5)cc4F)ccc3c2)c[nH]1)C(C)C [compound 66]
EC50: < 1 nM

COC(=O)N[C@H](C(=O)N1CCC[C@H]1c1ncc(-c2ccc(-c3ccc4cc(-c5c[nH]c([C@@H]6CCCN6C(=O)[C@H](NC(=O)OC)c6ccccc6)n5)ccc4c3)c(F)c2)[nH]1)C(C)C [compound 67]
EC50: < 1 nM

COC(=O)N[C@H](C(=O)N1CCC[C@H]1c1ncc(-c2ccc(-c3ccc4cc(-c5c[nH]c([C@@H]6CCCN6C(=O)[C@@H](NC(=O)OC)C6CCOCC6)n5)ccc4c3)c(F)c2)[nH]1)C(C)C [compound 68]
EC50: < 1 nM

COC(=O)N[C@H](C(=O)N1CCC[C@H]1c1nc(-c2ccc3cc(-c4ccc(-c5cnc([C@@H]6CCCN6C(=O)[C@H](NC(=O)OC)c6ccccc6)[nH]5)cc4C)ccc3c2)c[nH]1)C(C)C [compound 69]
EC50: < 1 nM

COC(=O)N[C@H](C(=O)N1CCC[C@H]1c1ncc(-c2ccc(-c3ccc4cc(-c5c[nH]c([C@@H]6CCCN6C(=O)[C@H](NC(=O)OC(C)(C)C)c6ccccc6)n5)ccc4n3)cn2)[nH]1)C(C)C [compound 70]
EC50: < 1 nM

COC(=O)N[C@H](C(=O)N1CCC[C@H]1c1nc(-c2cnc3cc(-c4ccc(-c5cnc([C@@H]6CCCN6C(=O)[C@H](NC(=O)OC)c6ccccc6)[nH]5)cc4)ccc3c2)c[nH]1)C1CCOCC1 [compound 71]
EC50: < 1 nM

COC(=O)N[C@H](C(=O)N1CCC[C@H]1c1nc(-c2cnc3cc(-c4ccc(-c5cnc([C@@H]6CCCN6C(=O)[C@H](NC(=O)OC(C)(C)C)c6ccccc6)[nH]5)cc4)ccc3c2)c[nH]1)C1CCOCC1 [compound 72]
EC50: < 1 nM

COC(=O)N[C@H](C(=O)N1CCC[C@H]1c1nc(-c2cnc3cc(-c4ccc(-c5cnc([C@@H]6CCCN6C(=O)[C@@H](NC(=O)OC)C6CCOCC6)[nH]5)cc4)ccc3c2)c[nH]1)C1CCOCC1 [compound 73]
EC50: < 1 nM

COC(=O)N[C@H](C(=O)N1CCC[C@H]1c1nc(-c2cnc3cc(-c4ccc(-c5cnc([C@@H]6CCCN6C(=O)[C@@H](NC(=O)OC)C(C)C)[nH]5)cn4)ccc3c2)c[nH]1)C(C)C [compound 74]
EC50: < 1 nM

COC(=O)N[C@H](C(=O)N1CCC[C@H]1c1nc(-c2cnc3cc(-c4ccc(-c5cnc([C@@H]6CCCN6C(=O)[C@@H](NC(=O)OC)C6CCOCC6)[nH]5)cn4)ccc3c2)c[nH]1)C1CCOCC1 [compound 75]
EC50: < 1 nM

COC(=O)N[C@H](C(=O)N1CCC[C@H]1c1nc(-c2ccc3[nH]c(-c4ccc(-c5cnc([C@@H]6CCCN6C(=O)[C@@H](NC(=O)OC)C(C)C)[nH]5)cc4)cc(=O)c3c2)c[nH]1)C(C)C [compound 76]
EC50: < 1 nM

COC(=O)N[C@@H](C(=O)N1CCC[C@H]1c1nc(-c2ccc3[nH]c(-c4ccc(-c5cnc([C@@H]6CCCN6C(=O)[C@H](NC(=O)OC)c6ccccc6)[nH]5)cc4)cc(=O)c3c2)c[nH]1)c1ccccc1 [compound 77]
EC50: 10 to 999 nM

COC(=O)N[C@@H](C(=O)N1CCC[C@H]1c1nc(-c2ccc3nc(-c4ccc(-c5cnc([C@@H]6CCCN6C(=O)[C@H](NC(=O)OC)c6ccccc6)[nH]5)cc4)cc(OC)c3c2)c[nH]1)c1ccccc1 [compound 78]
EC50: < 1 nM

COC(=O)N[C@H](C(=O)N1CCC[C@H]1c1nc(-c2ccc3nc(-c4ccc(-c5cnc([C@@H]6CCCN6C(=O)[C@@H](NC(=O)OC)C(C)C)[nH]5)cc4)cc(OC)c3c2)c[nH]1)C(C)C [compound 79]
EC50: < 1 nM
